MIC data for two compounds are collected here from patent US20230407243A1, “GENETIC PLATFORM TO INVESTIGATE THE FUNCTIONS OF BACTERIAL DRUG EFFLUX PUMPS” (priority 2022, published 2023).

In brackets after ≈: the same amount, converted by molar mass.

The subject of one assay is ΔtolC gyrB (pCA24N). The assay is classed as cell-based, Escherichia coli.
A further assay deals with K-12 wcaC (pCA24N). The assay is described as follows: microbe, parasite or virus in culture. Particulars: Escherichia coli, 0.1 mM IPTG. The method, then:
(§1) To enable comparison between efflux production in different genetic backgrounds, each efflux pump-encoding gene was also integrated into the genome of the wild-type BW25113 strain, the single gene deletion mutant from the Keio Collection, and EKO-35. Strains of interest were propagated on LB agar at 37° C. Cell inoculum was prepared using the colony resuspension method and applied to a 96-well well plate (VWR) in technical duplicate, and the minimum inhibitory concentrations were determined according to Clinical & Laboratory Standards Institute (CLSI) protocols in MHB II (Patel J. B. et al, 2015). The plates were incubated for 18 h (Multitron Shaker, Infors HT) at 37° C. with aeration at 900 rpm. The plates were equilibrated to room temperature before the OD600 nm was measured using a BioTek Synergy H1 microplate reader. For interplay profiling, blank subtracted OD600 nm values >0.1 were considered to represent growth.
(§2) To assess fitness of EKO-35 expressing wild-type copies of the genes identified to harbor nonsynonymous mutations, Inventors obtained clones from the E. coli ASKA library (Kitagawa, M. et al., 2005) with the rspA, tufA, pitA, wcaC, gyrB, and yjfC genes carried on plasmids, with gene expression under the control of an IPTG-inducible promoter. The ASKA plasmids were verified using Sanger sequencing and gene expression was induced with 0.1 mM IPTG. In the wild-type E. coli K-12 strain, the plasmids were maintained with 25 μg/mL chloramphenicol.

The subject of another assay is ΔtolC wcaC (pCA24N). The assay is described as follows: microbe, parasite or virus in culture. The method, then: as §1, §2

In the case of `CO[C@@H]1[C@@H](OC(N)=O)[C@@H](O)[C@H](Oc2ccc3c(O)c(NC(=O)c4ccc(O)c(CC=C(C)C)c4)c(=O)oc3c2C)OC1(C)C` [novobiocin], the MIC against ΔtolC gyrB (pCA24N) turned out to be 12.5 µg/mL (≈ 20.4 µM).
As for `COc1cc(Cc2cnc(N)nc2N)cc(OC)c1OC` [trimethoprim], the MIC was 0.195 µg/mL in the assay on K-12 wcaC (pCA24N) (Chlor + (25 μg/mL)); 1.56 µg/mL in the assay with K-12 wcaC (pCA24N) (Chlor −); 0.195 µg/mL in the assay with ΔtolC wcaC (pCA24N) (Escherichia coli); 0.195 µg/mL in the assay on ΔtolC wcaC (pCA24N) (ΔtolC wcaC, Chlor +, 0.1 mM IPTG).
